Results on 114 molecules are retold here after the RepoRT retention time repository.

The nature of the series: Agilent ZORBAX 300 SB-C18, 150 × 1 mm, 3.5 µm; A: water + 0.01% heptafluorobutyric acid; B: acetonitrile + 0.01% heptafluorobutyric acid; gradient (min/%B) 0/0 100/90. To be noted: stereoisomer not certain.
Consider `Cc1ccc(NC(=O)CCN2CCN(C)CC2)cc1`, for which the LC retention time amounted to 8.34 min.

Consider `Nn1cnn(Cc2ccccc2)c1=S`, for which the LC retention time amounted to 10.3 min.

For the molecule `c1ccc(CCN(Cc2ccncc2)Cc2ccccn2)cc1`, the LC retention time stood at 8.96 min.

For the molecule `Cc1ccc(NC(=O)Cn2c(=O)c3c(C)cc(C)nc3n(-c3ccccc3)c2=O)c(C)c1`, the LC retention time came to 15.2 min.

With `CCOC(=O)C=CC(=O)NCCC1=CCCCC1`, the LC retention time was found to be 13.8 min.

For `C#CC1(NC(C)=O)CCCCC1`, the LC retention time was 9.46 min.

As for `Nc1ccccc1C(=O)N1CCc2ccccc21`, the LC retention time is 12.4 min.

`CNCCN`: the LC retention time was 6.51 min.

`NC(=O)c1ccc[n+](C2OC(COP(=O)(O)O)C(O)C2O)c1` (centres undefined): the LC retention time is 1.78 min.

Consider `Cc1[nH]c(=S)[nH]c1CC(C)C`, for which the LC retention time was determined as 9.02 min.

For `NCCn1cnc2ccccc2c1=O`, the LC retention time turned out to be 7.46 min.

`CCN1C(=O)C2C(C)NC3(C(=O)Nc4ccccc43)C2C1=O` (centres undefined): the LC retention time worked out at 8.61 min.

Take `CC(C)CNCCN1CCOCC1`: the LC retention time is 7.31 min.

Consider `O=Cc1cccc2[nH]ccc12`, for which the LC retention time was found to be 9.79 min.

Regarding `C=CN1CCCC1=O`, the LC retention time was determined as 7.85 min.

As to `CCCNC(=O)c1c[nH]c2ccccc12`, the LC retention time came to 9.96 min.

For the molecule `O=C(c1ccccc1O)N1CCCC1`, the LC retention time turned out to be 9.29 min.

For the molecule `CC1=C(C(=O)c2ccccc2)CC(C(=O)c2ccccc2)=C(C)N1`, the LC retention time came to 13.2 min.

Turning to `NCCN1CCNCC1`, the LC retention time stood at 6.42 min.

As for `CCN(CC)CCCC(C)N` (centres undefined), the LC retention time is 7.05 min.

As for `CC(=O)Oc1ccccc1C(=O)NC(C)(C)C`, the LC retention time was determined as 11.2 min.

Consider `Cn1c(=O)[nH]cc(CC(=O)O)c1=O`, for which the LC retention time was found to be 5.4 min.

As for `O=C(O)c1ccc2[nH]c3c(c2c1)CCCC3`, the LC retention time was 11.6 min.

`NCc1ccccc1C(=O)O`: the LC retention time amounted to 7 min.

On to `COc1ccc(CCN2C(=O)C(C)C(Cc3ccc(C)cc3)C2=O)cc1OC` (centres undefined), for which the LC retention time amounted to 15.9 min.

For the molecule `Cc1[nH]c2ccccc2c1CCNC(=O)C1CCCN1C(=O)Nc1ccccc1` (centres undefined), the LC retention time was determined as 12 min.

With `CN1C2CCC1CC(OC(=O)C(CO)c1ccccc1)C2` (centres undefined), the LC retention time came to 8.92 min.

For `C=Cc1ccc(N)cc1`, the LC retention time was 8.31 min.

As for `CCn1c2ccccc2c2cc(N)ccc21`, the LC retention time is 9.76 min.

As to `Cc1cc(C)c2c(CC(=O)NN(C)C)coc2c1`, the LC retention time is 10.9 min.

As for `O=C(NCCc1c[nH]c2ccccc12)c1c[nH]c2ccccc12`, the LC retention time is 11.8 min.

For `CNC(=O)NC`, the LC retention time came out at 1.96 min.

Turning to `O=c1nc(NN=Cc2cccnc2)cn[nH]1`, the LC retention time stood at 6.94 min.

Consider `Cc1ccc(CNC2CCCC2)o1`, for which the LC retention time came out at 8.53 min.

With `CC(C)NCC(O)COc1ccc(COCCOC(C)C)cc1` (centres undefined), the LC retention time stood at 10 min.

As for `NCCCn1ccnc1`, the LC retention time turned out to be 6.66 min.

Consider `C=Cn1ccnc1`, for which the LC retention time amounted to 6.3 min.

Turning to `Cc1cc(C)c2c(=O)n(CC(=O)NC(C)CCc3ccccc3)c(=O)n(C)c2n1` (centres undefined), the LC retention time is 14.9 min.

As for `CCOC1COCC1N` (centres undefined), the LC retention time was determined as 6.48 min.

In the case of `Cc1ccc(-c2nn[nH]n2)cc1`, the LC retention time amounted to 9.59 min.

Take `CC(C)NCC(O)COc1cccc2[nH]ccc12` (centres undefined): the LC retention time worked out at 8.75 min.

For the molecule `Cc1cc(C)c2c(O)c(Cc3ccccc3)c(=O)[nH]c2c1`, the LC retention time was 12.6 min.

On to `Cc1ccc(C(=O)NCc2ccco2)c(C)c1`, for which the LC retention time is 12.3 min.

On to `c1ccc2c3c([nH]c2c1)CCCCC3`, for which the LC retention time was found to be 16.6 min.

`CC(N)(CO)CO`: the LC retention time stood at 3.29 min.

Take `Nc1ccn(CC(O)CO)c(=O)n1` (centres undefined): the LC retention time came to 4.4 min.

Turning to `S=C(NCCc1c[nH]c2ccccc12)Nc1ccccc1`, the LC retention time amounted to 13.2 min.

For `NC1=NC(=Nc2ccc3c(c2)OCCO3)c2ccccc21`, the LC retention time is 9.45 min.

For `Cc1ccc2nc(C)cc(C(=O)O)c2c1`, the LC retention time came to 6.16 min.

On to `Cc1ccc(-n2cccc2)c(O)c1`, for which the LC retention time worked out at 13.1 min.

In the case of `NCCN`, the LC retention time stood at 5.99 min.

On to `CCCCNCC`, for which the LC retention time came to 7.1 min.

As to `CC1=NCCC1`, the LC retention time came to 4.35 min.

For `CC(CCc1ccccc1)NC(=S)Nc1cccnc1` (centres undefined), the LC retention time stood at 11.1 min.

With `Cn1nc(-c2ccccc2)c(-c2ccccc2)c(C(=O)O)c1=O`, the LC retention time amounted to 11.2 min.

For the molecule `C=CCN(C)C`, the LC retention time turned out to be 5.73 min.

With `COc1ccccc1C=NNC(=O)c1ccc(C(C)(C)C)cc1`, the LC retention time is 15.3 min.

As for `c1ccc(SCSc2ccccn2)nc1`, the LC retention time came to 13.7 min.

In the case of `Cc1cccc(-n2c(C)cc(C=NNC(N)=S)c2C)c1C`, the LC retention time amounted to 14.4 min.

In the case of `O=C(CCN1C(=O)c2ccccc2C1=O)NCc1ccco1`, the LC retention time stood at 10.2 min.

`Cc1ccc(N(C)C)cc1`: the LC retention time worked out at 8.12 min.

As for `COc1ccc(C2=C(N)C(=O)NC2=O)cc1OC`, the LC retention time amounted to 8.69 min.

Regarding `COc1ccc(C2N(c3ccccc3)CCN2c2ccccc2)cc1`, the LC retention time is 18.6 min.

Take `OCCNCc1ccccc1`: the LC retention time was 7.72 min.

With `Cc1ccc2c(c1)C1CN(C)CCC1N2C(=O)CCCCCN1C(=O)c2ccccc2C1=O` (centres undefined), the LC retention time was found to be 10.6 min.

In the case of `CN(C)c1c[nH]c(=O)[nH]c1=O`, the LC retention time worked out at 6.22 min.

As for `S=C1NCN(CCC2=CCCCC2)CN1`, the LC retention time was 10.2 min.

With `Cc1cccc(C=NNC(=O)C[n+]2ccccc2)c1`, the LC retention time turned out to be 9.09 min.

On to `CCN(CC)c1nc(N)nc(N2N=CC=NN2)n1`, for which the LC retention time was found to be 8.12 min.

In the case of `Nc1nc(N)c2nc(-c3ccccc3)c(N)nc2n1`, the LC retention time turned out to be 8.71 min.

Consider `O=C(Nc1ccc2[nH]c(=O)[nH]c2c1)c1ccco1`, for which the LC retention time was found to be 7.75 min.

As for `CC(C)Cn1c(Cc2ccccc2)nc2ccccc21`, the LC retention time is 11.4 min.

On to `C=C(C)C1CCC2=CC(=O)CC(C)C2(C)C1` (centres undefined), for which the LC retention time was determined as 17.1 min.

For `Nc1cccc(C(=O)O)c1N`, the LC retention time stood at 10.6 min.

As to `NC(=O)c1cn(CC(=O)O)c(=O)[nH]c1=O`, the LC retention time came out at 1.6 min.

`CN(C)c1ccc(C=NNC(=O)C(c2ccccc2)c2ccccc2)cc1`: the LC retention time amounted to 15.4 min.

With `Cc1cccc(N2CN(Cc3ccccc3)CNC2=S)c1C`, the LC retention time was 14.1 min.

`CCC(=O)c1ccc2c(c1)N(CC(C)N(C)C)c1ccccc1S2` (centres undefined): the LC retention time is 11.8 min.

Consider `NC(=O)CCCc1c[nH]c2ccccc12`, for which the LC retention time was 9.42 min.

Consider `C=CCC1(Nc2ccccc2)CCCCC1`, for which the LC retention time amounted to 11.3 min.

As for `CCCCC(N)=O`, the LC retention time came out at 6.86 min.

Consider `OCc1cccnc1`, for which the LC retention time is 4.28 min.

Regarding `c1ccc(Cn2c3ccccc3c3ccccc32)cc1`, the LC retention time amounted to 18.8 min.

For `C[N+](C)(CCOCc1ccccc1)CCOCc1ccccc1`, the LC retention time worked out at 11.7 min.

On to `Cc1cn(-c2ccccc2)[nH]c1=O`, for which the LC retention time is 10.8 min.

As to `O=C(CNC(=O)c1ccco1)NN=Cc1ccco1`, the LC retention time amounted to 8.12 min.

As to `COC(=O)c1ccc(NC(=O)Cn2nc(C)c3ccccc3c2=O)cc1`, the LC retention time turned out to be 11.9 min.

In the case of `O=CN1CCCCC1`, the LC retention time is 7.47 min.

As for `O=C(Nc1ccccc1)C(=O)NC(CO)(CO)CO`, the LC retention time was determined as 8.16 min.

As for `Nc1ccc2cc[nH]c2c1`, the LC retention time is 7.56 min.

On to `COc1ccccc1-n1c(=O)[nH][nH]c1=O`, for which the LC retention time came to 6.75 min.

As to `Cc1nc2ccccc2c(=O)o1`, the LC retention time was determined as 9.03 min.

As for `Cn1c(=O)c2cc(C(=O)O)ccc2n(C)c1=O`, the LC retention time was 8.5 min.

Consider `Cc1cc(C(N)=O)c2ccccc2n1`, for which the LC retention time was 7 min.

Regarding `Nc1cc(N)[nH]c(=S)n1`, the LC retention time was determined as 6.42 min.

In the case of `Cn1c2nc(=O)[nH]c(=O)c-2nc2ccccc21`, the LC retention time is 8.38 min.

Regarding `Cc1oc(C)c(C(N)=O)c1C(N)=O`, the LC retention time worked out at 6.82 min.

In the case of `CC(=O)N(C)C1=C(N2CCCC2)C(=O)c2ccccc2C1=O`, the LC retention time is 11.2 min.

For the molecule `Oc1ccc2cccc(-n3cccc3)c2c1`, the LC retention time stood at 14.1 min.

Consider `CCN(CC)c1ccc(N=Cc2ccc(N(CC)CC)cc2O)cc1`, for which the LC retention time came out at 11.5 min.

`CN(C)CCNC1=CC(=O)CC(C)(C)C1`: the LC retention time came out at 7.29 min.

Regarding `Cc1[nH]n(-c2ccccc2)c(=O)c1C=O`, the LC retention time was found to be 8.21 min.

With `O=C1CCCN1CCc1ccccn1`, the LC retention time amounted to 6.77 min.

As to `CCOC(=O)C(N)Cc1ccccc1` (centres undefined), the LC retention time worked out at 9.03 min.

As to `CCNCC(O)CC` (centres undefined), the LC retention time is 6.36 min.

On to `O=C1OCc2cc(-n3cccc3)ccc21`, for which the LC retention time worked out at 11.8 min.

As for `Cc1cnc2c(ccc3c(C)c(C)cnc32)c1C`, the LC retention time amounted to 9.85 min.

`Cc1nc2ccccc2nc1N=C(N)NC(=O)c1ccccc1`: the LC retention time was determined as 11.1 min.

With `NCCCSc1ccccc1`, the LC retention time was 8.67 min.

For the molecule `Cc1ccccc1NCC(=O)Nc1c(C)cccc1C`, the LC retention time turned out to be 13.8 min.

As for `COC(=O)c1ccc(NC(=O)CC(=O)Nc2ccc(C(=O)OC)cc2)cc1`, the LC retention time worked out at 12.2 min.

On to `Cc1ccc(NC(=O)C=CC(=O)O)c(C)c1`, for which the LC retention time came to 10.8 min.

Turning to `CCCCCCCCSCCSC(=N)N`, the LC retention time came out at 12.7 min.

In the case of `Cc1ccc(-n2nc(-c3cn(C)nc3C)cc2-c2cn(C)nc2C)cc1`, the LC retention time came out at 12 min.
